The source of these data is patent publication US20230233569A1 (Revolution Medicines, Inc., priority 2020, published 2023).

Structures are written as SMILES.

The target of test [1] is KRAS G12S (Homo sapiens, UniProt P01116+P62937, G12S). Briefly: Ras-Raf disruption / FRET / MOA assay (BRAF RBD). The test is classed as biochemical. Conditions: Ras-Raf disruption, with Cyclophilin A; read-out: KRAS G12S FRET data IC50. The gist of the method:
(§1)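 TR-FRET in 25 mM HEPES pH 7.3, 100 mM NaCl, 5 mM MgCl2, 0.1% BSA, 0.002% Tween20 with 25 μM Cyclophilin A, 12.5 nM His6-Ras-GMPPNP, 50 nM GST-BRAF RBD; compound 10-point 3-fold series from 30 μM. After 3 h at 25 °C, Eu anti-His/APC anti-GST added for 1.5 h; IC50 from ratio decrease versus DMSO.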

Test [2] deals with NRAS Q61R (Homo sapiens, UniProt P01111+P62937, Q61R). As to the kind of experiment: Ras-Raf disruption / FRET / MOA assay (BRAF RBD). Conditions: NRAS Q61R; read-out: NRAS Q61R FRET data IC50. The test is classed as biochemical. The gist of the method:
as §1

Test [3] has as its target KRAS G13C (Homo sapiens, UniProt P01116+P62937, G13C). As to the kind of experiment: Ras-Raf disruption / FRET / MOA assay (BRAF RBD). Conditions: Ras-Raf disruption, with Cyclophilin A; read-out: KRAS G13C FRET data IC50. Type of test: biochemical. An outline of the steps: as §1
For test [4], the target named is KRAS G12D (Homo sapiens, UniProt P01116+P62937, G12D). Briefly: Ras-Raf disruption / FRET / MOA assay (BRAF RBD). Conditions: Ras-Raf disruption, with Cyclophilin A; read-out: KRAS G12D FRET data IC50. The test is classed as biochemical. The gist of the method:
as §1

Test [5] addresses KRAS Q61H (Homo sapiens, UniProt P01116+P62937, Q61H). Briefly: Ras-Raf disruption / FRET / MOA assay (BRAF RBD). The test is classed as biochemical. The conditions noted are these: KRAS Q61H; read-out: KRAS Q61H FRET data IC50. An outline of the steps: as §1
Test [6] concerns the target KRAS G13D (Homo sapiens, UniProt P01116+P62937, G13D). As to the kind of experiment: Ras-Raf disruption / FRET / MOA assay (BRAF RBD). The test is classed as biochemical. The conditions noted are these: Ras-Raf disruption, with Cyclophilin A; read-out: KRAS G13D FRET data IC50. The gist of the method: as §1
Test [7] has as its target NRAS Q61K (Homo sapiens, UniProt P01111+P62937, Q61K). As to the kind of experiment: Ras-Raf disruption / FRET / MOA assay (BRAF RBD). Conditions: NRAS Q61K; read-out: NRAS Q61K FRET data IC50. The test is classed as biochemical. The gist of the method:
as §1

The target in test [8] is NRAS G12C (Homo sapiens, UniProt P01111+P62937, G12C). Briefly: Ras-Raf disruption / FRET / MOA assay (BRAF RBD). Type of test: biochemical. Conditions: NRAS G12C; read-out: NRAS G12C FRET data IC50. An outline of the steps: as §1
NRAS G12C, sequence (P01111 whole entry G12C): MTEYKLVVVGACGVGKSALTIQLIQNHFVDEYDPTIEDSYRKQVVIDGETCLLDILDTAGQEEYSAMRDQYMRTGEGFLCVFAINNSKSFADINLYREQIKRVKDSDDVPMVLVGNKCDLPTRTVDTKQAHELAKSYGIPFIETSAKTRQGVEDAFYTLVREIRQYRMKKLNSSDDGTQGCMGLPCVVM
NRAS G12C, sequence (P62937 whole entry): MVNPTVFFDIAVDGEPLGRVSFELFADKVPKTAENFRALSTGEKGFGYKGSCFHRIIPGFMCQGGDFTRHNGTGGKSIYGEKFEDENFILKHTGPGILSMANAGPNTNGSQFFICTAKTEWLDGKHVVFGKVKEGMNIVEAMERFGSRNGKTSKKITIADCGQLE
The target in test [9] is KRAS WT (Homo sapiens, UniProt P01116+P62937). As to the kind of experiment: Ras-Raf disruption / FRET / MOA assay (BRAF RBD). Type of test: biochemical. Conditions: Ras-Raf disruption, with Cyclophilin A; read-out: KRAS WT FRET data IC50. The gist of the method: as §1
KRAS WT, sequence (P01116 1-169 isoform P01116-2 limits assumed): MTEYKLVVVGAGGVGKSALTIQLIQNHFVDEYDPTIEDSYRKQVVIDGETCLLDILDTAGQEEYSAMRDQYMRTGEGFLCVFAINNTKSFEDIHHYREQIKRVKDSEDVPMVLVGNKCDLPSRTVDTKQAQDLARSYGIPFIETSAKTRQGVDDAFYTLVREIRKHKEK
KRAS WT, sequence (P62937 whole entry): as the sequence (P62937 whole entry) above
In test [10] the target is NRAS WT (Homo sapiens, UniProt P01111+P62937). As to the kind of experiment: Ras-Raf disruption / FRET / MOA assay (BRAF RBD). The test is classed as biochemical. Conditions: NRAS WT; read-out: NRAS WT FRET data IC50. An outline of the steps: as §1
NRAS WT, sequence (P01111 whole entry): as the sequence (P01111 whole entry G12C) above, with C12G counted along it
NRAS WT, sequence (P62937 whole entry): as the sequence (P62937 whole entry) above
For test [11], the target named is KRAS G12V (Homo sapiens, UniProt P01116+P62937, G12V). Briefly: Ras-Raf disruption / FRET / MOA assay (BRAF RBD). Conditions: Ras-Raf disruption, with Cyclophilin A; read-out: KRAS G12V FRET data IC50. Type of test: biochemical. An outline of the steps: as §1
KRAS G12V, sequence (P01116 1-169 isoform P01116-2 G12V limits assumed): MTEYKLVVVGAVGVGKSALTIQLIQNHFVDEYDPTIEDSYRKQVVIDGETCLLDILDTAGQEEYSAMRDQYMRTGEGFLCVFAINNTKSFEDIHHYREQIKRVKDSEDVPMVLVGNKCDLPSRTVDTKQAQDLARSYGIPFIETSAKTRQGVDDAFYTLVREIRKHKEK
KRAS G12V, sequence (P62937 whole entry): as the sequence (P62937 whole entry) above
Test [12] deals with KRAS G12C (Homo sapiens, UniProt P01116+P62937, G12C). Briefly: Ras-Raf disruption / FRET / MOA assay (BRAF RBD). Type of test: biochemical. The conditions noted are these: Ras-Raf disruption, with Cyclophilin A; read-out: KRAS G12C FRET data IC50. An outline of the steps: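 His6-K-Ras G12C-GMPPNP (12.5 nM), GST-BRAF RBD (50 nM) and tagless Cyclophilin A (25 μM) incubated 3 h at 25 °C with compound (10-point 3-fold series from 30 μM), pH 7.3 HEPES buffer. Anti-His Eu/anti-GST APC added for 1.5 h; decreased TR-FRET ratio vs DMSO gives IC50.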
KRAS G12C, sequence (P01116 1-169 isoform P01116-2 G12C limits assumed): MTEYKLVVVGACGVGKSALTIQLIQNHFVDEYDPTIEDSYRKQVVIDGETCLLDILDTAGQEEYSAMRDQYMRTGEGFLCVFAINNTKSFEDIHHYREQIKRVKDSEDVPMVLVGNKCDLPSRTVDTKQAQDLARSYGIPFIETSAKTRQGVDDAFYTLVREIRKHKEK
KRAS G12C, sequence (P62937 whole entry): as the sequence (P62937 whole entry) above

Test [13] has as its system K-Ras G12C (NCI-H358 cells). Briefly: Potency assay: pERK (AlphaLISA SureFire or In-Cell Western). The test is classed as cell-based. The conditions noted are these: Homo sapiens, NCI-H358; H358 KRAS G12C; read-out: pERK EC50. Here is the method:
(§2) The purpose of this assay is to measure the ability of test compounds to inhibit K-Ras in cells. […] This procedure measures a decrease in cellular pERK in response to test compounds.
(§3) NCI-H358 cells were grown and maintained using media and procedures recommended by the ATCC. On the day prior to compound addition, cells were plated in 384-well cell culture plates (40 μl/well) and grown overnight in a 37° C., 5% CO2 incubator. Test compounds were prepared in 10, 3-fold dilutions in DMSO, with a high concentration of 10 mM. On the day of assay, 40 nL of test compound was added to each well of cell culture plate using an Echo550 liquid handler (LabCyte®). Concentrations of test compound were tested in duplicate. After compound addition, cells were incubated 4 hours at 37° C., 5% CO2. Following incubation, culture medium was removed and cells were washed once with phosphate buffered saline.
(§4) In some experiments, cellular pERK level was determined using the AlphaLISA SureFire Ultra p-ERK1/2 Assay Kit (PerkinElmer). Cells were lysed in 25 μL lysis buffer, with shaking at 600 RPM at room temperature. […] After a 2-hour incubation in the dark, 5 μL donor mix was added, plate was sealed, and incubated 2 hours at room temperature. Signal was read on an Envision plate reader (PerkinElmer) using standard AlphaLISA settings. Analysis of raw data was carried out in Excel (Microsoft) and Prism (GraphPad). Signal was plotted vs. the decadal logarithm of compound concentration, and IC50 was determined by fitting a 4-parameter sigmoidal concentration response model.
In other experiments, cellular pERK was determined by In-Cell Western. […] Fixed cells were washed 4 times for 5 minutes with TBS containing 0.1% Triton X-100 (TBST) and then blocked with 100 μL Odyssey blocking buffer (LI-COR) for 60 minutes at room temperature. […] Cells were washed 4 times for 5 minutes with TBST. Secondary antibody (IR-800CW rabbit, LI-COR, diluted 1:800) and DNA stain DRAQ5 (LI-COR, diluted 1:2000) were added and incubated 1-2 hours at room temperature. Cells were washed 4 times for 5 minutes with TBST. Plates were scanned on a LI-COR Odyssey CLx Imager. Analysis of raw data was carried out in Excel (Microsoft) and Prism (GraphPad). Signal was plotted vs. the decadal logarithm of compound concentration, and IC50 was determined by fitting a 4-parameter sigmoidal concentration response model.
as §2
as §3, with “mM. On day of” for “mM. On the day of”, “assay, 40 nl of test” for “assay, 40 nL of test”
as §4, with “μl” for “μL”, “sealed” for “sealed,”

KRAS G13C, sequence (P01116 1-169 isoform P01116-2 G13C limits assumed): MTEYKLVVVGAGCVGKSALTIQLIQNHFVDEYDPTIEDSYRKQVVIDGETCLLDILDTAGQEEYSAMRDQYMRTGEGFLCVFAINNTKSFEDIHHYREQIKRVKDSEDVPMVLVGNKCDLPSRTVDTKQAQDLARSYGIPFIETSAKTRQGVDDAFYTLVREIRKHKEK
KRAS G13C, sequence (P62937 whole entry): as the sequence (P62937 whole entry) above
KRAS G12S, sequence (P01116 1-169 isoform P01116-2 G12S limits assumed): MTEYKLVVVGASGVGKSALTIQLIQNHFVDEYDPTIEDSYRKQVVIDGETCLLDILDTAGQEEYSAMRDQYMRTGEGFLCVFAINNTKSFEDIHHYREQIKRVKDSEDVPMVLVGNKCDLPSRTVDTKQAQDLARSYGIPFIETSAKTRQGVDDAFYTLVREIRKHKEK
KRAS G12S, sequence (P62937 whole entry): as the sequence (P62937 whole entry) above
KRAS G13D, sequence (P01116 1-169 isoform P01116-2 G13D limits assumed): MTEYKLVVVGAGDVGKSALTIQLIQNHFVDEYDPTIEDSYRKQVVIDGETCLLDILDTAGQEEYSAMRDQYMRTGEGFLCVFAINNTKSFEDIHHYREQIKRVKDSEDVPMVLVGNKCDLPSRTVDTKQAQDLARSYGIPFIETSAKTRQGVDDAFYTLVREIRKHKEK
KRAS G13D, sequence (P62937 whole entry): as the sequence (P62937 whole entry) above
KRAS Q61H, sequence (P01116 1-169 isoform P01116-2 Q61H limits assumed): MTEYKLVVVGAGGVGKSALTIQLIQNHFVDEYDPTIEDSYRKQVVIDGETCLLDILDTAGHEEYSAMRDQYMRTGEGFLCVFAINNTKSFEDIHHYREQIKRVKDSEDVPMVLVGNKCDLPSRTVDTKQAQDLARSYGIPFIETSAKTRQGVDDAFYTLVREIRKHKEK
KRAS Q61H, sequence (P62937 whole entry): as the sequence (P62937 whole entry) above
NRAS Q61K, sequence (P01111 whole entry Q61K): as the sequence (P01111 whole entry G12C) above, with C12G, Q61K counted along it
NRAS Q61K, sequence (P62937 whole entry): as the sequence (P62937 whole entry) above
KRAS G12D, sequence (P01116 1-169 isoform P01116-2 G12D limits assumed): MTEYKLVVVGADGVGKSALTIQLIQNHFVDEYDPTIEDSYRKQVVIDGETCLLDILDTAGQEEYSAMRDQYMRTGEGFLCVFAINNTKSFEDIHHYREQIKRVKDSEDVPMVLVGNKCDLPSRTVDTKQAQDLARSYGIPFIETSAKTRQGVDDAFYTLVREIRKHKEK
KRAS G12D, sequence (P62937 whole entry): as the sequence (P62937 whole entry) above
NRAS Q61R, sequence (P01111 whole entry Q61R): as the sequence (P01111 whole entry G12C) above, with C12G, Q61R counted along it
NRAS Q61R, sequence (P62937 whole entry): as the sequence (P62937 whole entry) above

On to `CCOC(=O)[C@H]1O[C@@H]1C(=O)N1CC[C@H](C(=O)N(C)[C@H](C(=O)N[C@H]2Cc3cc(O)cc(c3)-c3ccc4c(c3)c(c(-c3cccnc3[C@H](C)OC)n4CC)CC(C)(C)COC(=O)[C@@H]3CCCN(N3)C2=O)C(C)C)C1` [Example 329], for which the IC50 in test [1] is 10 to 100 nM; in test [2] it was 10 to 100 nM; in test [3] it was under 10 nM; in test [4], 100 to 1000 nM; in test [5], 10 to 100 nM; in test [6], 10 to 100 nM. The IC50 is 10 to 100 nM in test [7]; under 10 nM in test [8]; 10 to 100 nM in [9]; 10 to 100 nM in [10]; 10 to 100 nM in test [11]; under 10 nM in test [12].

With `CCn1c(-c2cccnc2[C@H](C)OC)c2c3cc(ccc31)-c1cc(O)cc(c1)C[C@H](NC(=O)[C@H](C(C)C)N(C)C(=O)[C@H]1CCN(C(=O)C3CO3)C1)C(=O)N1CCC[C@H](N1)C(=O)OCC(C)(C)C2` (some centres unmarked) [Example 330], the IC50 is 10 to 100 nM in test [1]; 100 to 1000 nM in test [2]; under 10 nM in test [3]; 10 to 100 nM in test [4]; 10 to 100 nM in test [5]; 10 to 100 nM in test [6]. Moreover, the IC50 was 100 to 1000 nM in test [7]; under 10 nM in test [8]; 10 to 100 nM in test [9]; 10 to 100 nM in test [10]; 10 to 100 nM in test [11]; under 10 nM in [12].

`CCn1c(-c2cccnc2[C@H](C)OC)c2c3cc(ccc31)-c1cc(O)cc(c1)C[C@H](NC(=O)[C@H](C(C)C)N(C)C(=O)[C@H]1CCN(C(=O)C3OC3c3ccccc3)C1)C(=O)N1CCC[C@H](N1)C(=O)OCC(C)(C)C2` (some centres unmarked) [Example 331]: the IC50 in test [1] lay in the range of 10 to 100 nM; in [2], 100 to 1000 nM; in test [3], 10 to 100 nM; in [4], 100 to 1000 nM; in test [5] it was 10 to 100 nM; in test [6], 100 to 1000 nM. Further, the IC50 in [7] is 100 to 1000 nM; in test [8], 10 to 100 nM; in test [9] it was 10 to 100 nM; in test [10] it was 10 to 100 nM; in [11], 10 to 100 nM; in test [12], under 10 nM.

For `CCn1c(-c2cccnc2[C@H](C)OC)c2c3cc(ccc31)-c1cc(O)cc(c1)C[C@H](NC(=O)[C@H](C(C)C)N(C)C(=O)[C@H]1CCN(C(=O)C3(C)CO3)C1)C(=O)N1CCC[C@H](N1)C(=O)OCC(C)(C)C2` (some centres unmarked) [Example 332], the IC50 in test [1] was in the range of 10 to 100 nM; in test [2], 100 to 1000 nM; in [3], 10 to 100 nM; in [4] it was 100 to 1000 nM; in [5] it was 10 to 100 nM; in [6], 10 to 100 nM. The IC50 in test [7] lay within 100 to 1000 nM; in test [8], 10 to 100 nM; in [9] it was 10 to 100 nM; in [10], 10 to 100 nM; in [11], 10 to 100 nM; in test [12], 10 to 100 nM.

Take `C=CC(=O)N1CC[C@H](C(=O)N(C)[C@H](C(=O)N[C@H]2Cc3cc(O)cc(c3)-c3ccc4c(C(C)(C)C#N)c(-c5ccccc5CCOC)n(c4c3)CC(C)(C)COC(=O)[C@@H]3CCCN(N3)C2=O)C(C)C)C1` [Example A12]: the 50% effective concentration (EC50) in test [13] is under 5000 nM.

On to `C=CC(=O)N1CC[C@H](C(=O)N(C)[C@H](C(=O)N[C@H]2Cc3cc(O)cc(c3)-c3ccc4c(c3)c(c(-c3cnn(C)c3[C@H](C)OC)n4CC)CC(C)(C)COC(=O)[C@@H]3CCCN(N3)C2=O)C(C)C)C1` [Example A166], for which the EC50 in [13] is under 5000 nM.

Usually IC50 stands for the concentration needed to halve the response being measured. As usually defined, the EC50 is the concentration at which the effect is half-maximal.
